{
  "source": "ChEMBL document CHEMBL1201862",
  "about": "“PubChem BioAssay data set” (2004)",
  "key": {"[1]": {"assay": "inhibitors of intracellular T. cruzi replication, confirmation, NIH3T3 host cells, beta-gal luminescence (AID 2044);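 further: luminescent beta-galactosidase reporter signal from transgenic T. cruzi replicating inside host cells; inhibitors lower the luminescence signal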", "format": "functional, cell-based"}, "[2]": {"assay": "cytotoxicity toward NIH3T3 fibroblasts, dose response, counter-screen, cell-based, ATP luminescence, mouse fibroblasts (AID 2010);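 further: cells exposed to compound for about 90 hours before reading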", "format": "functional"}, "[3]": {"assay": "THP-1 cell cytotoxicity, dose response, cytotoxicity control for non-replicating M. tuberculosis project (AID 489025)", "format": "functional"}, "[4]": {"assay": "HepG2 cell cytotoxicity, dose response, cytotoxicity control for non-replicating M. tuberculosis project (AID 489018)", "format": "functional", "details": "Mycobacterium tuberculosis"}, "[5]": {"assay": "cytotoxicity in NIH/3T3 mouse fibroblasts, dose response, cytotoxicity control, cell-based, mouse embryonic fibroblasts, dry powder, set 2 (AID 493247)", "format": "functional", "details": "Fibroblast"}, "Trypanosoma cruzi": {"test_system": "Trypanosoma cruzi", "assay": "growth inhibition of intracellular Trypanosoma cruzi, dose response, cell-based, plate reader, dry powder, set 3 (AID 493197)", "format": "functional"}, "[6]": {"assay": "Vero E6 cell cytotoxicity, dose response, cytotoxicity control for non-replicating M. tuberculosis project, secondary assay (AID 492998)", "format": "functional, VeroE6", "details": "Vero C1008"}, "[7]": {"target": "T1, Microphthalmia-associated transcription factor (Homo sapiens, UniProt O75030)", "T1 sequence (O75030 whole entry)": "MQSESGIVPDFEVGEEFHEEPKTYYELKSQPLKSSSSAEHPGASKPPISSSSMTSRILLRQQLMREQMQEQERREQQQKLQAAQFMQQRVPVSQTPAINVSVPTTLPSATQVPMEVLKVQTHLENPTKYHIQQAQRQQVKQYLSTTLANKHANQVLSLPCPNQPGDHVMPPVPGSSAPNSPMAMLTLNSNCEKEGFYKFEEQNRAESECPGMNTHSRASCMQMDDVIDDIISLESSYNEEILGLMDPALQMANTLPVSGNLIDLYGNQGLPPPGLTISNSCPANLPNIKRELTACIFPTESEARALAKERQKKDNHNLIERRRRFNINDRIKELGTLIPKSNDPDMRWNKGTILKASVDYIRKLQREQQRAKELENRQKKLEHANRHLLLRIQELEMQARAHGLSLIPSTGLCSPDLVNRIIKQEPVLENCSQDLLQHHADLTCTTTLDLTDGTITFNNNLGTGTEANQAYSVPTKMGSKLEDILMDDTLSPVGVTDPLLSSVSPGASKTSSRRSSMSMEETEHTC", "assay": "TRPM1 promoter luciferase signal decrease, dose response, MITF inhibitor project, cell-based, SK-MEL-5, cherry-picked, set 3 (AID 493073)", "format": "functional"}, "cells [8]": {"assay": "cells", "format": "functional"}, "[9]": {"assay": "inhibitors of Trypanosoma cruzi host-cell infection, confirmation, beta-gal luminescence, NIH3T3 host cells (AID 2630)", "format": "functional, cell-based", "details": "Mus musculus"}, "A-375": {"test_system": "A-375", "assay": "MITF: Counter assay: A375 proliferation Measured in Cell-Based System Using Plate Reader - 2084-03_Inhibitor_Dose_DryPowder_Activity. [Related pubchem assays (depositor defined):AID488944]", "format": "functional", "details": "Homo sapiens"}, "cells [10]": {"assay": "cells"}, "[11]": {"assay": "NIH-3T3 fibroblast cytotoxicity, dose response, cytotoxicity control, cell-based, fluorescence, Alamar Blue, secondary assay (AID 2327);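 further: NIH-3T3 mouse fibroblasts cultured with fluconazole at 8 µg/mL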", "format": "functional"}, "[12]": {"assay": "insulin promoter down-regulators in MIN6 cells, imaging, high-content screening, mouse beta cells (AID 1628)", "format": "functional"}, "[13]": {"assay": "cytotoxicity in MIN6 insulinoma cells, dose response, cytotoxicity control, cell-based, mouse insulinoma (AID 2122);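 further: confirmatory high-throughput counterscreen run to flag cytotoxic compounds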", "format": "functional"}, "[14]": {"assay": "C. albicans growth with fluconazole, confirmation, fluorescence, retest (AID 2467)", "format": "functional, cell-based"}, "[15]": {"target": "G-protein coupled receptor 55 (Homo sapiens, UniProt Q9Y2T6)", "sequence (Q9Y2T6 whole entry)": "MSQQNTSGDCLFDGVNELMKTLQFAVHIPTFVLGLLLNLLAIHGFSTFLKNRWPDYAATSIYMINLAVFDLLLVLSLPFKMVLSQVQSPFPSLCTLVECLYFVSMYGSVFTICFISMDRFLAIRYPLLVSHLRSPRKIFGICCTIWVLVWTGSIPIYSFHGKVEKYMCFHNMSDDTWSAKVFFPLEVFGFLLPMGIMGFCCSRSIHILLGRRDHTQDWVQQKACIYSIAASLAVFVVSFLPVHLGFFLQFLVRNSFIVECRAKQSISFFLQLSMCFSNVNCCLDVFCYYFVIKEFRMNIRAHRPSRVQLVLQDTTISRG", "assay": "GPR55 antagonists blocking LPI-driven arrestin recruitment, primary screen, imaging, U2OS, beta-arrestin-GFP, LPI agonist (AID 2013);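 further: antagonist potency measured as reduced agonist-driven arrestin aggregation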", "format": "functional"}, "[16]": {"target": "Serine/threonine-protein phosphatase (Candida dubliniensis (strain CD36 / CBS 7987 / NCPF 3949 / NRRLY-17841) (Yeast), UniProt B9W6M3)", "sequence (B9W6M3 whole entry)": "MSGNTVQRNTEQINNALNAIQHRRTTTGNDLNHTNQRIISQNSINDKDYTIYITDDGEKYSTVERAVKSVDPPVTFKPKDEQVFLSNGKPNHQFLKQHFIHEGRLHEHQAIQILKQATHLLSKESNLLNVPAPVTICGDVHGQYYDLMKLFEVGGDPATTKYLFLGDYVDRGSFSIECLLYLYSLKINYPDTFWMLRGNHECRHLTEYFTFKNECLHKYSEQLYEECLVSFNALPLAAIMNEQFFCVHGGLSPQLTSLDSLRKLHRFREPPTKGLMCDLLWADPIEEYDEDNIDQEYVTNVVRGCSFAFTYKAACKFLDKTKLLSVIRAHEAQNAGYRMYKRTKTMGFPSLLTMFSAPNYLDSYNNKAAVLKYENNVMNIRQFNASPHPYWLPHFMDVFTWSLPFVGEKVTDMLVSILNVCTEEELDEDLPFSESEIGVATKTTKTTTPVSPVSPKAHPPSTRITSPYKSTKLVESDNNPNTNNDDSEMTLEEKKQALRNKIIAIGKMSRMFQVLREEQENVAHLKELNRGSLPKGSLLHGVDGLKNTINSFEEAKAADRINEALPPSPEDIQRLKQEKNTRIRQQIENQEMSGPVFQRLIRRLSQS", "assay": "calcineurin pathway inhibitors in yeast reporter, dose response, S. cerevisiae, CDRE-lacZ, luminescence, secondary (AID 2388);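 further: yeast reporter cells carrying a calcineurin-responsive lacZ construct stimulated with calcium chloride; luminescent beta-galactosidase reporter signal in whole cells rather than isolated phosphatase activity; potency for inhibition where a drop in reporter signal means calcineurin blockade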", "format": "functional, cell-based"}, "[17]": {"target": "T2, Ubiquitin-conjugating enzyme E2 N (Homo sapiens, UniProt P61088)", "T2 sequence (P61088 whole entry)": "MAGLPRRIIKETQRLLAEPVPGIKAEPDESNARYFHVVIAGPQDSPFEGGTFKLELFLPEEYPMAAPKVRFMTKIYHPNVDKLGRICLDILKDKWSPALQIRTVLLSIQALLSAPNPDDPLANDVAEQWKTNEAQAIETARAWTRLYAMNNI", "format": "functional"}, "[18]": {"target": "ATP-dependent molecular chaperone HSP82 (Candida albicans (strain WO-1) (Yeast), UniProt C4YTQ8)", "sequence (C4YTQ8 whole entry)": "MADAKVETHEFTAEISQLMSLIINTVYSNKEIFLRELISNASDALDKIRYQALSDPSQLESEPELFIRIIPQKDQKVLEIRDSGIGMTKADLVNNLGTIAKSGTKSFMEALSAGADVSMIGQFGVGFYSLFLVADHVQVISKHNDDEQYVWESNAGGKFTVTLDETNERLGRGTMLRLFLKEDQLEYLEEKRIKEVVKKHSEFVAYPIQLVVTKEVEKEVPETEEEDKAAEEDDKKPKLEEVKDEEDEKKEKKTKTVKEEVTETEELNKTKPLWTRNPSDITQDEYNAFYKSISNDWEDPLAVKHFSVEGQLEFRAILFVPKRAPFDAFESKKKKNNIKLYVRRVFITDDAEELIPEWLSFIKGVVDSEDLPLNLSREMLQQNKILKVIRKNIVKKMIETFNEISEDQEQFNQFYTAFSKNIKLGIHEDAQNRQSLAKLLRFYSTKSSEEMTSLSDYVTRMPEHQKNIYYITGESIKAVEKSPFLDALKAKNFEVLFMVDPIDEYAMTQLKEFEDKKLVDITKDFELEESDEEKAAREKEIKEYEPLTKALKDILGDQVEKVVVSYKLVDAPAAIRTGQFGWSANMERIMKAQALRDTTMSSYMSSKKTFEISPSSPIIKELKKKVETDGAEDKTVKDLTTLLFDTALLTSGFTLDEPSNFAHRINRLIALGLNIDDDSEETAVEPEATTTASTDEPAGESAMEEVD", "assay": "loss of DOC-induced GRE-beta-galactosidase reporter signal, dose response, Hsp90 inhibitor project, S. cerevisiae, luminescence (AID 2400);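 further: beta-galactosidase luminescence from glucocorticoid response element reporter as proxy for Hsp90 function; inhibitor potency where signal loss means Hsp90 inhibition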", "format": "functional, cell-based"}, "[19]": {"assay": "Shn3 3'UTR reporter inhibitors, dose response, cell-based, Clone20 osteoblasts, firefly luciferase, cherry-picked (AID 624132)", "format": "functional"}, "[20]": {"assay": "HepG2 cell cytotoxicity, dose response, cytotoxicity control for Shn3 inhibitor project, CellTiter-Glo, cherry-picked (AID 624134)", "format": "functional, cell-based"}, "[21]": {"assay": "control 3'UTR Renilla luciferase suppression, dose response, counter-screen for Shn3 inhibitor project, cell-based, Clone20-Shn3RL, cherry-picked (AID 624133)", "format": "functional"}, "Escherichia coli": {"test_system": "Escherichia coli", "assay": "microbe, parasite or virus in culture"}, "[22]": {"assay": "HIV-1 Env-mediated cell fusion inhibitors, dose response, CCR5-tropic Env (AID 2279)", "format": "functional"}, "[23]": {"assay": "Luminescence Cell-Based Dose Retest to Confirm Inhibitors of Cancer Stem Cells. [Related pubchem assays (depositor defined):AID2717, AID2721]", "format": "functional", "details": "Homo sapiens"}, "[24]": {"target": "T3, Apoptotic protease-activating factor 1 (Homo sapiens, UniProt O14727)", "T3 sequence (O14727 whole entry)": "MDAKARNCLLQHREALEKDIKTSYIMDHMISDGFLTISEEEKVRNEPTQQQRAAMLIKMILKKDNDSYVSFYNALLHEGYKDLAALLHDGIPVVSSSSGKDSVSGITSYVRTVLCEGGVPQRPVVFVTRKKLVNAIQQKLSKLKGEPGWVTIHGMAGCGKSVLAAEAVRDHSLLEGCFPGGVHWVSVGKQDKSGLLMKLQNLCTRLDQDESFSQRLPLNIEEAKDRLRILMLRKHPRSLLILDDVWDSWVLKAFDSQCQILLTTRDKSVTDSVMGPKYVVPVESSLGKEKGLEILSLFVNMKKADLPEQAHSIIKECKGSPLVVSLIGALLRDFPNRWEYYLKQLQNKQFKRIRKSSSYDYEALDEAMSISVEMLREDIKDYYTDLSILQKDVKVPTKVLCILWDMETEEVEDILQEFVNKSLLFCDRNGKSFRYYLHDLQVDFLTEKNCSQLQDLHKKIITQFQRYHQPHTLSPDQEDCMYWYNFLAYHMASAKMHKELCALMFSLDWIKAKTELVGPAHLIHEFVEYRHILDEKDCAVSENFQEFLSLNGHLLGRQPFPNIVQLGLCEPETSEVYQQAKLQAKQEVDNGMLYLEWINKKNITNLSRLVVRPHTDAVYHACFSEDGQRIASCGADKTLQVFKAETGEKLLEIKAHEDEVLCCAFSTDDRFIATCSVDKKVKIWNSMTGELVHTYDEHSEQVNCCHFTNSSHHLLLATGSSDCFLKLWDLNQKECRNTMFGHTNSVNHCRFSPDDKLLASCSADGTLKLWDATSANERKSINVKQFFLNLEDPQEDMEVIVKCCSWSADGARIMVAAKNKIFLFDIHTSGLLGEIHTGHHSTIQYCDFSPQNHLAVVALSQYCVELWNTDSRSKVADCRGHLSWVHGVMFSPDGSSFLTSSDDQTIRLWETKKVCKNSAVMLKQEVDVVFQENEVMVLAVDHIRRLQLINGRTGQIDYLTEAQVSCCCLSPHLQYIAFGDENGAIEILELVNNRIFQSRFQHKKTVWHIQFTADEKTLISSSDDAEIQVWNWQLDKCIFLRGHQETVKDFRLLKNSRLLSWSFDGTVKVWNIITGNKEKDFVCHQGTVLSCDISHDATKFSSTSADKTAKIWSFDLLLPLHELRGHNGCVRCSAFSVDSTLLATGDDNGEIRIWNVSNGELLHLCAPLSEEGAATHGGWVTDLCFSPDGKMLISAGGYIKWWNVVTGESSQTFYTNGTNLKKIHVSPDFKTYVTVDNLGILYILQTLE", "assay": "activation of Apaf-1 mediated apoptosis – fluorescent, uHTS hits, dose response (AID 588554)", "format": "functional"}, "HEK293 [25]": {"test_system": "HEK293", "assay": "cells", "details": "Homo sapiens"}, "HEK293 [26]": {"test_system": "HEK293", "assay": "cells", "details": "Homo sapiens", "remark": "listed apart in the source"}},
  "note": "The source made the active and inactive calls.",
  "data": [
    {"smiles": "O=C(CNc1cccc([N+](=O)[O-])c1)N/N=C/c1ccc([N+](=O)[O-])o1", "values": [
      {"measurement": "EC50", "setting": "[1]", "value": "< 0.1 µM (active)"},
      {"measurement": "EC50", "setting": "[2]", "value": "> 60 µM (not active)"},
      {"measurement": "CC50", "setting": "[3]", "value": "14.1 µM (active)"},
      {"measurement": "CC50", "setting": "[4]", "value": "10.1 µM (active)"},
      {"measurement": "AC50", "setting": "[5]", "value": "35.6 µM (active)"},
      {"measurement": "AC50", "setting": "Trypanosoma cruzi", "value": "0.061 µM (active)"},
      {"measurement": "CC50", "setting": "[6]", "value": "11.6 µM (active)"},
      {"measurement": "AC50", "setting": "[7]", "value": "8.63 µM (active)"},
      {"measurement": "IC50", "setting": "cells [8]", "value": "5.42 µM (active)"},
      {"measurement": "EC50", "setting": "[9]", "value": "0.0205 µM (active)"},
      {"measurement": "AC50", "setting": "A-375", "value": "41.8 µM (active)"},
      {"measurement": "EC50", "setting": "cells [10]", "value": "0.055 µM (active)"}
    ]},
    {"smiles": "Cc1cc(Nc2ccccc2)nc(NCc2ccccc2)n1", "values": [
      {"measurement": "EC50", "setting": "[11]", "value": "> 150 µM (inactive)"},
      {"measurement": "IC50", "setting": "[12]", "value": "0.927 µM (active)"},
      {"measurement": "IC50", "setting": "[13]", "value": "0.571 µM (active)"},
      {"measurement": "EC50", "setting": "[14]", "value": "0.783 µM (active)"},
      {"measurement": "IC50", "setting": "[15]", "value": "2.05 µM (active)"},
      {"measurement": "EC50", "setting": "[16]", "value": "> 180 µM (inactive)"},
      {"measurement": "IC50", "setting": "[17]", "value": "> 20 µM (inactive)"},
      {"measurement": "EC50", "setting": "[18]", "value": "> 150 µM (inactive)"},
      {"measurement": "AC50", "setting": "[19]", "value": "1.04 µM (active)"},
      {"measurement": "AC50", "setting": "[20]", "value": "20.5 µM (active)"},
      {"measurement": "AC50", "setting": "[21]", "value": "2.54 µM (active)"}
    ]},
    {"smiles": "CCOc1ccc(S(=O)(=O)Nc2cc(Cl)ccc2O)cc1", "values": [
      {"measurement": "AC50", "setting": "Escherichia coli", "value": "53.7 µM (active)"}
    ]},
    {"smiles": "O=C(N/N=C/c1cc(Cl)cc([N+](=O)[O-])c1O)NC12CC3CC(CC(C3)C1)C2", "values": [
      {"measurement": "IC50", "setting": "[22]", "value": "40 µM (active)"},
      {"measurement": "AC50", "setting": "[23]", "value": "5.03 µM (active)"},
      {"measurement": "EC50", "setting": "[24]", "value": "6.87 µM (active)"}
    ]},
    {"smiles": "O=C(NC12CC3CC(CC(C3)C1)C2)N(Cc1ccccc1)Cc1ccncc1", "values": [
      {"measurement": "EC50", "setting": "HEK293 [25]", "value": "> 59.6 µM (inactive)"},
      {"measurement": "EC50", "setting": "HEK293 [26]", "value": "> 59.6 µM (inactive)"}
    ]}
  ]
}
